What all share (experiment): growth of human tumour cells (NCI), 48 h
The test system of assay [1] is ACHN renal.
The test system of assay [2] is HL-60(TB) leukemia.
Assay [3] concerns KM20L2 colon.
Assay [4] concerns NCI-H23 lung.
In assay [5] the test system is PC-3 prostate.
In assay [6] the test system is SNB-75 CNS.
Assay [7] deals with SNB-78 CNS.
Assay [8] relates to T-47D breast.
Assay [9] has as its system UACC-257 melanoma.
The test system of assay [10] is NCI/ADR-RES ovarian.

Where “and” joins values, the source holds several entries; their conditions need not be identical. Equal values may be shown once.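 The compound was tested at five concentrations on cells cultured in 96-well plates, with a 48-hour exposure period. Abbreviation: GI50, concentration required for 50% inhibition of growth. TGI: total growth inhibition.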

With `CC(C)Cc1ccc(C(C)/C=C2\CCC(CN3CCCCC3)C2=O)cc1` (centres undefined), the TGI in assay [1] came to 19.9 µM; in assay [2], 5 µM; in assay [3], 29.1 µM; in [4] it was 20.8 µM; in assay [5], 17.5 µM; in [6], 33.7 µM. For the same compound, the figures for the TGI in assay [7], in assay [8] and in assay [9] were 35.1 µM, 45.5 µM and 26.4 µM, respectively.
As for `CC(C)c1cc(C(=O)[O-])c(O)c(C(C)C)c1.CC(C)c1cc(C(=O)[O-])c(O)c(C(C)C)c1.CC(C)c1cc(C(=O)[O-])c(O)c(C(C)C)c1.CC(C)c1cc(C(=O)[O-])c(O)c(C(C)C)c1.CC(C)c1cc(C(=O)[O-])c(O)c(C(C)C)c1.CC(C)c1cc(C(=O)[O-])c(O)c(C(C)C)c1.[Cu+2].[Mn+2].[Mn+2]`, the GI50 was 31.7 µM in assay [1]; 17.7 µM in assay [2]; 26.1 µM in assay [3]; 20.1 µM in [4]; 24.8 µM in assay [6]; 37 µM in [7]. Further, in assay [9], the GI50 was 29.6 µM. For the same compound, the TGI is above 100 µM in assay [1]; 53.9 µM in assay [2]; above 100 µM in assay [3]; 45.6 µM in assay [4]; 68.7 µM in assay [6]; above 100 µM in assay [7]. The TGI in assay [9] is 67.1 µM.
As for `CC(C)(C)C1CCC(=O)C(C(O)CC2CC(=O)N(c3ccccc3)C(=O)C2)C1` (centres undefined), the TGI in [1], in assay [2], in [3], in [4], in assay [6] and in assay [7] was above 100 µM in each case. The same compound returned a TGI in assay [9] above 100 µM.
As to `COc1c(Cl)[c]([Hg][O]C(C)=O)c(NCC(C)=O)c(OC)[c]1[Hg][O]C(C)=O`, the GI50 in assay [1] is 17.8 µM; in assay [2] it was 19.9 µM; in assay [3], 28.3 µM; in assay [4] it was 11.2 µM; in assay [6] it was 13.9 µM; in assay [7], 15.9 µM. Further, in [9], the GI50 is 15.4 µM. Moreover, the TGI in assay [1] was 34.5 µM; in assay [2], 50.1 µM; in assay [3], above 100 µM; in assay [4], 28.8 µM; in assay [6], 32.5 µM; in assay [7], 43.2 µM. The compound also returned a TGI in assay [9] of 29.9 µM.
Turning to `CC(C)C1NC(=O)[C@H](C)OC(=O)[C@@H](C(C)C)NC(=O)[C@@H](C)OC(=O)C(C(C)C)NC(=O)[C@H](C)OC1=O` (some centres undefined), the TGI in assay [1], in [2], in assay [3], in assay [4], in assay [6] and in assay [7] was above 100 µM throughout. The compound also registered a TGI in assay [9] above 100 µM.
Take `CCOc1ccc(N=Cc2ccc3ccccc3n2)cc1`: the TGI is above 100 µM in assay [1]; above 76.8 µM in assay [2]; above 100 µM in assay [3]; above 100 µM in [4]; above 86.3 µM in [6]; above 100 µM in assay [7]. Moreover, the TGI in assay [9] is above 100 µM.
Turning to `CCCCCN(CCCCC)C(=O)[C@H](CCC(=O)OCc1ccccc1)NC(=O)c1cc2ccccc2[nH]1`, the TGI in [1], in assay [2], in [3], in assay [4], in assay [6] and in [7] was above 100 µM each time. In assay [9], this compound registered a TGI above 100 µM.
Consider `CCCCCCC/C=C1\CCC(CN(C)C)C1=O` (centres undefined), for which the TGI turned out to be 31.6 µM in [1]; 9.09 µM in assay [2]; 34.6 µM in assay [3]; 32.7 µM in assay [4]; 14.6 µM in assay [10]; 27.6 µM in assay [5]. In addition, the TGI in assay [6] was found to be 33.1 µM; in [7], 35.8 µM; in [8], 26.7 µM; in [9], 29.4 µM.
As for `CCC(C)(C)NS(=O)(=O)c1ccccc1`, the TGI in [1], in [2], in assay [3], in assay [4], in [6] and in assay [7] was above 100 µM throughout. The compound also showed a TGI in assay [9] above 100 µM.
As to `C/C(=N\NS(=O)(=O)c1c(C)cc(C)cc1C)c1ccc[n+]([O-])n1`, the TGI stood at 29.9 µM in [1]; 25.1 µM in [2]; 54.6 µM in [3]; 34 µM in assay [4]; 41.2 µM in assay [6]; 68.3 µM in [7]. The TGI in assay [9] is 22.7 µM.
For `COC(=O)c1ccc(/C=C/S(=O)(=O)c2ccccc2)cc1`, the TGI in assay [1], in assay [2], in [3], in assay [4], in [6] and in assay [7] was above 100 µM in each case. This compound also registered a TGI in [9] above 100 µM.
For `CCOC(=O)NC(=O)c1cn(C2OC(COC(=O)CCCCCCCCC(=O)OCC3OC(n4cc(C(=O)NC(=O)OCC)c(=O)[nH]c4=O)C4OC(C)(C)OC34)C3OC(C)(C)OC32)c(=O)[nH]c1=O` (centres undefined), the TGI in assay [1], in assay [2], in assay [3], in [4], in assay [6] and in assay [7] was above 100 µM each time. In addition, the TGI in assay [9] was above 100 µM.
As to `CSC1SCC2C(=O)N(C)C(C(C)C)C(=O)OCC(NC(=O)c3cnc4ccccc4n3)C(=O)NC(C)C(=O)N(C)C1C(=O)N(C)C(C(C)C)C(=O)OCC(NC(=O)c1cnc3ccccc3n1)C(=O)NC(C)C(=O)N2C` (centres undefined), the GI50 in assay [1] is < 0.001 µM and 0.00186 µM and 0.0075 µM; in assay [2], below 0.001 µM; in [3] it was 5.29e-06 µM; in assay [4], below 0.001 µM; in assay [10] it was 0.0238 µM; in assay [7], 8.96e-07 µM. Also, the GI50 in [8] and in [9] was below 0.001 µM throughout. Further, the TGI in [10] is 0.222 µM and 1.16 µM and 1.41 µM; in assay [5], 0.0132 µM and 0.0224 µM.
In the case of `N/C(=N\N=C\c1ccc(O)c(O)c1)NO`, the TGI in assay [1], in assay [2], in assay [3], in [4], in assay [6] and in assay [7] was above 100 µM each time. The compound further registered a TGI in [9] above 100 µM.
With `Cn1cc2ccccc2c1-c1nc(F)nc(Nc2ccc(N)cc2)n1`, the TGI in assay [1] was 68 µM; in [2], above 100 µM; in assay [3] it was 47.4 µM; in [4], 29.3 µM; in assay [6], 42.9 µM; in assay [7], 77.7 µM. The same compound returned a TGI in assay [9] of 37.6 µM.
For `CC(CCC(=O)O)c1ccc(Br)cc1` (centres undefined), the TGI in assay [1], in assay [2], in assay [3], in assay [4], in [6] and in assay [7] was above 100 µM in each case. The TGI in assay [9] is above 100 µM.

For the origin of these results see PubChem BioAssay (NCI).
